What was measured:
[1] = tested on: Wistar rats with chronic myocardial infarction (MI); assay: Plasma noradrenaline (HPLC) and ANF (RIA) levels in MI rats; type: in vivo, rat; settings: for Plasma NA (noradrenaline) level / Plasma ANF (atrial natriuretic factor): three weeks, mean ± SEM
Experimental: The following studies were performed on male Wistar rats (270 to 320 g, Harlan Zeist, Netherlands). The rats were kept in rooms with a 12 h light/dark cycle and had free access to standard rat diet and water. The animals underwent coronary artery ligation (MI rats) or sham operation without ligation (sham rats). After 24 hours the MI rats were randomized and implanted with osmotic minipumps (Alzet, Model 2001) in order to administer moxonidine in a dose of 3 or 6 mg/kg-day s.c. (subcutaneously) or only operated on without pump implant. The moxonidine treatment was continued up to the end of the experiment three weeks after the surgical procedure. The left anterior descending coronary artery was ligated under pentobarbital anesthesia (60 mg/kg, i.p.). Brief description: after intubation of the trachea, an incision was made in the skin over the 4th intercostal space. The overlaying muscles were separated and kept aside. […] The pericardium was opened. The heart was left in situ and a 6-0 silk suture was placed below the left coronary artery in the vicinity of the origin of the pulmonary artery. The suture was tightened. Sham rats were subjected to the same procedure but without actual ligation. The ribs were pulled together with 3-0 silk suture. The muscles were then returned to their original position and the skin was sutured. 19 days after the surgical procedure for coronary artery ligation the rats were again anesthetized with pentobarbital and a catheter (PE-10, heat-sealed with PE-50) was introduced through the femoral artery and placed in the abdominal aorta. The catheter was advanced subcutaneously as far as the animals' neck, where it was allowed to exit and was fixed and closed at the exit site. The rats were allowed a 2-day recovery period. On the day of sampling the catheter was lengthened with a heparin-treated, saline-filled tube and two 1-ml blood samples were collected after at least 60 minutes. Blood was collected in pre-cooled sample pots (syringes) prepared with 10 μl EDTA (0.1M). After centrifugation the plasma was collected in pre-cooled tubes containing either 1.2 mg glutathione or 10 μl aprotinin (100 KIU; KIU=kilo international units) in order to determine either catecholamines or atrial natriuretic factor (ANF). The tubes were stored at −80° C. The plasma concentrations of noradrenaline, adrenaline and dopamine were determined by HPLC, whereas the concentrations of ANF were analyzed using an RIA test. The data obtained were expressed as group means ± SEM (standard error of the mean) unless otherwise stated. Only data of infarcted hearts with an infarct area covering the major portion of the free heart wall of the left ventricle were included in the evaluation since smaller infarct areas are usually fully compensated hemodynamically. The data were analyzed by one-way analysis of variance (ANOVA) followed by post-hoc Bonferroni analysis. Differences in the structural parameters in moxonidine treated and untreated infarcted hearts were determined by Student t-test independently for the two groups.

[2] = tested on: Wistar rats with chronic myocardial infarction (MI); assay: Measurement of cardiac interstitial collagen (Sirius red) in MI rats; type: in vivo, rat; settings: interventricular septum, infarct rats, three weeks, mean ± SEM
Experimental: The following studies were performed on male Wistar rats (270 to 320 g, Harlan Zeist, Netherlands). The rats were kept in rooms with a 12 h light/dark cycle and had free access to standard rat diet and water. The animals underwent coronary artery ligation (MI rats) or sham operation without ligation (sham rats). After 24 hours the MI rats were randomized and implanted with osmotic minipumps (Alzet, Model 2001) in order to administer moxonidine in a dose of 3 or 6 mg/kg-day s.c. (subcutaneously) or only operated on without pump implant. The moxonidine treatment was continued up to the end of the experiment three weeks after the surgical procedure. The left anterior descending coronary artery was ligated under pentobarbital anesthesia (60 mg/kg, i.p.). Brief description: after intubation of the trachea, an incision was made in the skin over the 4th intercostal space. […] The quantity of interstitial collagen was determined on 6 to 7 hearts randomly selected from each experimental group. […] The data obtained were expressed as group means ± SEM (standard error of the mean) unless otherwise stated. […] The data were analyzed by one-way analysis of variance (ANOVA) followed by post-hoc Bonferroni analysis. Differences in the structural parameters in moxonidine treated and untreated infarcted hearts were determined by Student t-test independently for the two groups.

[3] = tested on: Wistar rats with chronic myocardial infarction (MI); assay: Wistar rats with chronic myocardial infarction (coronary artery ligation): body weight, heart weight, heart rate, MAP, mortality; type: in vivo; settings: for Heart rate: conscious infarct rats
Experimental: The following studies were performed on male Wistar rats (270 to 320 g, Harlan Zeist, Netherlands). The rats were kept in rooms with a 12 h light/dark cycle and had free access to standard rat diet and water. The animals underwent coronary artery ligation (MI rats) or sham operation without ligation (sham rats). After 24 hours the MI rats were randomized and implanted with osmotic minipumps (Alzet, Model 2001) in order to administer moxonidine in a dose of 3 or 6 mg/kg-day s.c. (subcutaneously) or only operated on without pump implant. The moxonidine treatment was continued up to the end of the experiment three weeks after the surgical procedure.
The left anterior descending coronary artery was ligated under pentobarbital anesthesia (60 mg/kg, i.p.). Brief description: after intubation of the trachea, an incision was made in the skin over the 4th intercostal space. The overlaying muscles were separated and kept aside. The animals were then placed on positive pressure ventilation (rate 65 to 70/min, stroke volume 3 ml) and the thoracic cavity was opened by cutting the intercostal muscles. The pericardium was opened. The heart was left in situ and a 6-0 silk suture was placed below the left coronary artery in the vicinity of the origin of the pulmonary artery. The suture was tightened. Sham rats were subjected to the same procedure but without actual ligation. The ribs were pulled together with 3-0 silk suture. The muscles were then returned to their original position and the skin was sutured.
The data obtained were expressed as group means ± SEM (standard error of the mean) unless otherwise stated. Only data of infarcted hearts with an infarct area covering the major portion of the free heart wall of the left ventricle were included in the evaluation since smaller infarct areas are usually fully compensated hemodynamically. The data were analyzed by one-way analysis of variance (ANOVA) followed by post-hoc Bonferroni analysis. Differences in the structural parameters in moxonidine treated and untreated infarcted hearts were determined by Student t-test independently for the two groups.
Four groups of rats were studied: 2 moxonidine-treated infarct rats (dosage 3 and 6 mg/kg·day), untreated infarct rats and sham-operated control rats (SHAM rats). Coronary artery ligation produced a main infarction in the free wall of the left ventricle. Total mortality of the experimental animals was 29% and was the same in both infarct groups. Data of five rats of the 6 mg/kg·day group had to be excluded since their infarct area was too small. The results of the tests are summarized in Table 1 for experiments with a dosage of 6 mg/kg·day and for a dosage of 3 mg/kg·day, and are explained in the following. The results shown in Table 1 comprise the data of groups of 7 to 14 rats with the exception of the collagen measurements, for which the data refer to groups of 6 to 7 rats.

[4] = infarct rats, moxonidine 6 mg/kg daily s.c.
[5] = infarct rats, moxonidine 3 mg/kg daily s.c., three weeks, mean ± SEM
[6] = infarct rats, moxonidine 6 mg/kg daily s.c., three weeks, mean ± SEM

COc1nc(C)nc(Cl)c1NC1=NCCN1 [moxonidine, 4-chloro-5-[(4,5-dihydro-1H-imidazol-2-yl)-amino]-6-methoxy-2-methyl-pyrimidine]
Plasma noradrenaline levels (in words) ([1]; infarct rats, 3 mg/kg·day group): clearly reduced | Plasma noradrenaline levels (in words) ([1]; infarct rats, 6 mg/kg·day group, versus sham rats): almost half the values of the sham rats | Plasma NA (noradrenaline) level ([1]; infarct rats, moxonidine 3 mg/kg daily s.c.): 345 ± 108 pg/mL | Plasma ANF (atrial natriuretic factor) ([1]; infarct rats, moxonidine 3 mg/kg daily s.c., n-3): (54 ± 2, n-3) pg/ml | Plasma ANF (atrial natriuretic factor) [1, 4]: 61 ± 8 pg/mL | Plasma NA (noradrenaline) level [1, 4]: 96 ± 20 pg/mL | Plasma ANF levels (in words) ([1]; moxonidine-treated infarct rats versus untreated infarct rats): unchanged compared to those of untreated infarct rats | Plasma noradrenaline levels (in words) ([1]; moxonidine-treated infarct rats, dose not stated, versus sham rats): about half the value found for the sham rats | Interstitial Collagen ([2]; moxonidine 3 mg/kg daily s.c.): 2.4 ± 0.2 % | Interstitial Collagen ([2]; moxonidine 6 mg/kg daily s.c.): 1.4 ± 0.1% | Heart rate ([3]; moxonidine 3 mg/kg daily s.c., three weeks, mean ± SEM): 334 ± 12 beats/min | Heart rate ([3]; moxonidine 6 mg/kg daily s.c., three weeks, mean ± SEM): 321 ± 6 beats/min | Heart weight [3, 5]: 1408 ± 104 mg | Heart/Body weight ratio [3, 5]: 4.7 ± 0.4 | MAP (mean arterial pressure) [3, 5]: 87 ± 3 mmHg | Heart weight [3, 6]: 1076 ± 24 mg | MAP (mean arterial pressure) [3, 6]: 100 ± 5 mmHg | Heart rate measured in conscious animals (in words) ([3]; moxonidine-treated infarct rats versus sham rats): slowing of cardiac activity (bradycardia) compared to the sham rats | Body weight (in words) ([3]; moxonidine-treated infarct rats versus untreated infarct rats and sham rats): slightly lower body weight than the untreated infarct rats | Cardiac weight (in words) ([3]; moxonidine-treated infarct rats versus untreated infarct rats, dosage depending 3 to 6 mg/kg·day): significantly lower than the cardiac weight of untreated infarct rats | Total mortality of the experimental animals ([3]; the same in both infarct groups (treated and untreated)): 29%
